Measured values taken from publication PMC11640836, “Aminomethylmorpholino Nucleosides as Novel Inhibitors of PARP1 and PARP2: Experimental and Molecular Modeling Analyses of Their Selectivity and Mechanism of Action” (International Journal of Molecular Sciences, 2024).
Where two headings read alike, the source gives them in different places.

Assays:
PARP1 [1] = target: T1, PARP1 (Homo sapiens, UniProt P09874); assay: Steady-state kinetic analysis of the PARP1 enzymatic reaction; assay type: biochemical; conditions: for Type of inhibition: Vmax decreased, KM increased
T1 construct: made in house; host or cells: insect cells
Experimental: The four efficient inhibitors of PARP1 (compounds 8, 12, 13, and 14) were further examined by detailed kinetic experiments to determine the type of inhibition and the inhibition constants. […] The kinetics experiments of the PARylation reaction were performed at varied concentrations of the NAD^+ substrate and three–four different fixed concentrations of the inhibitor. The kinetic parameters of the reaction (Vmax and KM) were calculated by fitting the Michaelis–Menten equation to the kinetic data. The type of inhibition was determined by analyzing the dependences of Vmax and KM on the concentration of the inhibitor in linearizing coordinates (Figure S3). All the compounds had decreased Vmax and increased KM values as the inhibitor concentration increased (panels A−E), indicating a mixed type of inhibition, which was further evidenced by the double reciprocal plots of kinetic data (panel F). From these experiments, the inhibition constants reflecting the affinity of inhibitors to the NAD^+ binding pocket of free enzymes were determined (Table 2).
To determine the apparent maximum rate of enzymatic reaction (Vmax), Michaelis constant (KM), and possible inhibition mechanism, steady-state kinetic experiments were performed at […] fixed concentrations of the substrate, in the absence and presence of different fixed concentrations of the inhibitor. The standard reaction mixtures (10 μL) contained 100 μM, 300 μM, 500 μM, 1 mM, or 2 mM NAD^+; a tested PARP1/PARP2 inhibitor specified for each compound (Figure S3); the recombinant human enzyme PARP1 (200 nM) or murine PARP2 (800 nM); and reaction buffer components (specified in the previous subsection). The reaction was performed as described in the previous subsection. The raw data (kinetic curves) were obtained in three independent experiments and statistically processed with OriginPro 8.6.0 software. […]
F) Graphical representation in double reciprocal plots. The inhibitor concentrations (µM) are indicated right to each panel.
Figure S3. Graphical representation of inhibition type determination for PARP1 and PARP2 with selected compounds.
The Ki and Ki(2) values presented in Table 2 in the main text and Table S1 were calculated using the equations:
Ki = Ci⁄ Ki (2) = CiV Vmax ∗ൗ−1
ቂ(Vmax Km )൘ቃ(Vmax ∗ Km ∗)⁄ −1 where Vmax (Vmax*) – maximal reaction velocity in th e absence (presence) of inhibitor; Km (Km*) – Michaelis constant in the absence (presence) of inhibitor; Ci – the inhibitor concentration.
(also on this page, place not known: Ci )⁄ (Vmax ∗ )⁄൘ቃ − Ki(2) Ci V ∗ൗ− 1 the Vmax KM 3000 0 1 0 250 [ 32 P]ADP-ribose, counts x 10 -3 NAD + ,)
(1 picture or pasted object on this page, not shown here)

PARP2 = target: T2, PARP2 (Mus musculus, UniProt O88554); assay: PARP2 autopoly(ADP-ribosyl)ation (autoPARylation) enzyme assay with [32P]NAD+; assay type: biochemical, murine
T2 construct: made in house; host or cells: insect cells
Experimental: (§1) Human recombinant poly(ADP-ribose) polymerase 1 (PARP1) and murine poly(ADP-ribose) polymerase 2 (PARP2) were expressed in insect cells and purified as previously described. Radioactively labeled [^32P]NAD^+ was synthesized from [α-^32P]ATP, according to the previously developed method. The reaction of autopoly(ADP-ribosyl)ation was performed as follows. For PARP1, the reaction mixture contained 50 mM of Tris-HCl, a pH of 8.0, 10 mM of MgCl2, 150 mM of NaCl, 7 mM of β-mercaptoethanol, 2 A260/mL of activated DNA, 0.3 mM of [^32P]NAD^+, and 1 of the tested compounds. The reaction was initiated by adding PARP1 up to 200 nM, and the reaction mixtures were incubated at 37 °C for 2 min. For PARP2, the reaction mixture contained 50 mM of Tris-HCl, a pH of 8.0, 3 mM of spermine, 150 mM of NaCl, 7 mM of β-mercaptoethanol, 2 A260/mL of activated DNA, 0.6 mM of [^32P]NAD^+, and 1 of the tested compounds. The reaction was initiated by adding PARP2 up to 800 nM, and the reaction mixtures were incubated at 37 °C for 5 min. The tested compounds were added at six fixed concentrations, specified for each of them. The reaction was stopped by dropping 10 µL aliquots onto Whatman 1 filter papers soaked in 5% trichloroacetic acid (TCA). The filters were washed 4 times with 150 mL of 5% TCA and dried in the air after the removal of TCA with 90% ethanol. The introduction of radioactivity into the reaction product was quantified using a Typhoon FLA 9500 imager (GE Healthcare, Chicago, IL, USA). The half-maximal inhibitory concentration (IC50) values were determined using a six-point concentration response curve in three independent experiments.

[2] = target: T3, PARP2 (supplemented with HPF1 or not) (Mus musculus, UniProt O88554); assay: PARP2 inhibition in the absence and presence of HPF1 (automodification, SDS-PAGE); assay type: biochemical, murine; conditions: 500 nM PARP2, 1 µM HPF1
T3 construct: made in house; host or cells: insect cells (PARP2)
Experimental: PARP1/PARP2 autopoly(ADP-ribosyl)ation was performed in a standard 20 μL reaction mixture containing 50 mM of Tris-HCl, a pH of 8.0, 100 mM of NaCl, 10 mM of MgCl2, 1 mM of DTT, 10 µM of [^32P]NAD^+, 1 µM of gap-DNA (a 32-mer duplex with a medially located 1-nucleotide gap), 500 nM of PARP1/PARP2 (supplemented with 1 µM of HPF1 or not), and an inhibitor of interest at concentrations specified in Figure 4 and Figure S7. The reaction was initiated by adding a mixture of [^32P]NAD^+ and DNA to a protein-inhibitor mixture pre-assembled on ice. After incubating the mixtures at 37 °C for the indicated time periods, the reactions were terminated by the addition of an SDS-PAGE sample buffer and heating for 2 min at 90 °C. The reaction products were analyzed using 10% SDS-PAGE with the subsequent phosphor imaging of a Coomassie brilliant blue stained gel. Protein bands labeled with [^32P]ADP-ribose were quantified using Quantity One 4.6.7 Basic software. The residual activity (%) was determined as the level of PARP automodification in the presence of an inhibitor normalized to the respective level in the control sample containing no inhibitor.

PARP1 [3] = target: T1, PARP1; assay: PARP1 autopoly(ADP-ribosyl)ation (autoPARylation) enzyme assay with [32P]NAD+; assay type: biochemical
Experimental: as §1

[4] = mixed-type inhibition, read-out: Ki (affinity for the free enzyme)
[5] = read-out: Ki(2) (affinity for the enzyme complex with NAD+ substrate)

T1 sequence (P09874 whole entry): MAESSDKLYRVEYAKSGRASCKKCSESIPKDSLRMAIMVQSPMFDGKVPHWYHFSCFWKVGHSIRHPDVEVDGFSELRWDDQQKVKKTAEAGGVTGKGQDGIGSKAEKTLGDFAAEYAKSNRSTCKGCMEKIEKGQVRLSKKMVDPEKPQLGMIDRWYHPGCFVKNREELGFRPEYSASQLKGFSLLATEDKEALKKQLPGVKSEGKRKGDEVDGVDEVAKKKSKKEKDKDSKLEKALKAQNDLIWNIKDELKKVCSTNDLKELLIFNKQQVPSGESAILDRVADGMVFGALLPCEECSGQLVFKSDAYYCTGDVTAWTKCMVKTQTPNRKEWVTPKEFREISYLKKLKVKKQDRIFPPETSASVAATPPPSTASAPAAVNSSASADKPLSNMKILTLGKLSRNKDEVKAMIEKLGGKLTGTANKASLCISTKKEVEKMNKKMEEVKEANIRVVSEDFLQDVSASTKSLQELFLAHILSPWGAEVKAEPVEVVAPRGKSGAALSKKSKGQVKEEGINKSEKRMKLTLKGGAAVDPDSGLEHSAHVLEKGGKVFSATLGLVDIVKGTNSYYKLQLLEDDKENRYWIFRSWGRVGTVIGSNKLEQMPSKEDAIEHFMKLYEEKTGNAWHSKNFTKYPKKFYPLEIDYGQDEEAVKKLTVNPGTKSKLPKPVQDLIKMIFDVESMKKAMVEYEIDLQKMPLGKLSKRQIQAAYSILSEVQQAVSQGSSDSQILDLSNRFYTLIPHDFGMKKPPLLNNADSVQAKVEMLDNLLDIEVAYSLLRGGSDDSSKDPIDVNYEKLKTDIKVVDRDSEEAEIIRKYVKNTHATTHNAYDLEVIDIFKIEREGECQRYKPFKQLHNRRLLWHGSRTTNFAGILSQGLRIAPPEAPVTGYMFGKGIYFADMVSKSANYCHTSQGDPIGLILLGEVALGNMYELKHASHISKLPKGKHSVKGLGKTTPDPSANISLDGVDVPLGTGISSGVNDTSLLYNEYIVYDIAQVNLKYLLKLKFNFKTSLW
T2 sequence (O88554 whole entry): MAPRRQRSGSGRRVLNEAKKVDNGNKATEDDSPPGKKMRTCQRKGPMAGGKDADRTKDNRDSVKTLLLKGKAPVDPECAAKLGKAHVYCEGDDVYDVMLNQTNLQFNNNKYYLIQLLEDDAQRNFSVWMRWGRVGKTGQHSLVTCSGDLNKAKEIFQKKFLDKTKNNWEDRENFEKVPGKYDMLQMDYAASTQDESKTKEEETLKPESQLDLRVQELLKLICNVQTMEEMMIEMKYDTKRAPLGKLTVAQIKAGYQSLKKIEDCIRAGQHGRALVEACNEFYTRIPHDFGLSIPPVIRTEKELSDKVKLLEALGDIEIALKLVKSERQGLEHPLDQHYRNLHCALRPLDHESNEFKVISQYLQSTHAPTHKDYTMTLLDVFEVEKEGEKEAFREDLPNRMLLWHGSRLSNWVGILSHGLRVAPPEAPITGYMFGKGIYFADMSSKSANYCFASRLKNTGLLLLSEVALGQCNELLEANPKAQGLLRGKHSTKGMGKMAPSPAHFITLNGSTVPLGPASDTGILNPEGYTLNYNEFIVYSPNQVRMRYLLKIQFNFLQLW
T3 sequence (O88554 whole entry): as above

Structure (SMILES)	Type of inhibition (PARP1 [1])	Ki (PARP1 [1]; [4])	Ki (PARP1 [1]; [5])	IC50 (PARP2)	Impact of HPF1 on the inhibition potency against PARP2 [2]	IC50 (PARP1 [3])	IC50 (PARP2; 0.6 mM [32P]NAD+, means ±SDs of three independent experiments, read-out: IC50, PARP2 activity in the autoPARylation reaction)	IC50 (PARP1 [3]; 0.3 mM [32P]NAD+, means ±SDs of three independent experiments, read-out: IC50, PARP1 activity in the autoPARylation reaction)
Cc1cn([C@H]2CNC[C@@H](CN)O2)c(=O)[nH]c1=O [Compound 8]	mixed-type inhibition	12 ± 2 µM	40 ± 8 µM	133 ± 8 µM	no impact of HPF1	10 ± 3 µM	–	–
NC[C@@H]1CNC[C@H](n2cc(I)c(=O)[nH]c2=O)O1 [Compound 14]	mixed-type inhibition	15 ± 3 µM	50 ± 10 µM	–	no impact of HPF1	–	63 ± 9 µM	12 ± 2 µM
